From ChEMBL document CHEMBL1201862, “PubChem BioAssay data set” (2004)
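Values below derive from 48-hour exposures of cells grown in 96-well plates, with endpoints linearly interpolated between the two concentrations bracketing the appropriate inhibition level. Abbreviation: GI50, concentration required for 50% inhibition of growth.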 Activity calls are given as the source filed them. Rule as the data show it: active = GI50 up to about 1.1 µM and inactive = higher.

Tests used:
Experiment in all cases: NCI-60 cell line screen, 48 h
[1] = tested on: CCRF-CEM
[2] = tested on: DU-145
[3] = tested on: HCC 2998
[4] = tested on: HCT-116
[5] = tested on: Hs-578T
[6] = tested on: IGROV-1
[7] = tested on: LOX IMVI
[8] = tested on: M14
[9] = tested on: MDA-MB-231
[10] = tested on: Malme-3M
[11] = tested on: NCI/ADR-RES
[12] = tested on: PC-3
[13] = tested on: RPMI-8226
[14] = tested on: SF-268
[15] = tested on: SK-MEL-2
[16] = tested on: SN12C
[17] = tested on: SW-620
[18] = tested on: UACC-62
[19] = tested on: CAKI-1
[20] = tested on: K562

Measured: GI50

CCCCc1ccc(-n2sc3ncccc3c2=O)cc1
inactive: [1] 2.17 µM | [2] 21 µM | [3] 5.35 µM | [4] 11.6 µM | [5] 15.7 µM | [6] 12.3 µM | [7] 5.66 µM | [8] 11.2 µM | [9] 15.6 µM | [10] 3.96 µM | [11] 14.4 µM | [12] 11 µM | [13] 8.02 µM | [14] 8.75 µM | [15] 12.2 µM | [16] 16.4 µM | [17] 13.9 µM | [18] 12.4 µM

O=C(O)C1C2CCC(C2)C1c1ccccc1 (stereo unspecified)
inactive: [19] > 100 µM | [1] > 100 µM | [2] > 100 µM | [3] > 100 µM | [4] > 100 µM | [5] > 100 µM | [20] > 100 µM | [7] > 100 µM | [8] > 100 µM | [9] > 100 µM | [10] > 100 µM | [11] > 100 µM | [12] > 100 µM | [13] > 100 µM | [14] > 100 µM | [15] 55.5 µM | [16] > 100 µM | [17] > 100 µM | [18] > 100 µM

CN(/N=C(\C(=O)O)c1ccccc1)C1=NCCCN1
inactive: [19] > 100 µM | [1] > 100 µM | [2] > 100 µM | [3] > 100 µM | [4] > 100 µM | [5] > 100 µM | [6] > 100 µM | [20] > 100 µM | [7] > 100 µM | [9] > 100 µM | [10] > 100 µM | [11] > 100 µM | [12] > 100 µM | [13] > 100 µM | [14] > 100 µM | [15] > 100 µM | [16] > 100 µM | [17] > 100 µM | [18] > 100 µM

CCN(CC)CCCNc1nnc(C)c2[nH]c3ccccc3c12
inactive: [19] > 100 µM | [1] 4.42 µM | [2] 18.9 µM | [3] 9.95 µM | [4] 5.36 µM | [5] 15.4 µM | [6] 12.1 µM | [20] 10.1 µM | [7] 7.46 µM | [8] 16 µM | [9] 11.4 µM | [10] 15.1 µM | [11] > 100 µM | [12] 12.1 µM | [13] 23.5 µM | [14] 8.73 µM | [15] 15.2 µM | [16] 12.7 µM | [17] 9.2 µM | [18] 13.7 µM

N/C(=N\Nc1ccc(C(=O)O)cc1)c1cnccn1
inactive: [19] > 100 µM | [2] > 100 µM | [3] > 100 µM | [4] > 100 µM | [5] > 100 µM | [6] > 100 µM | [20] > 100 µM | [7] > 100 µM | [8] > 100 µM | [9] > 100 µM | [10] 37.2 µM | [11] > 100 µM | [12] > 100 µM | [13] > 100 µM | [14] > 100 µM | [15] > 100 µM | [16] > 100 µM | [17] > 100 µM | [18] > 100 µM

S=c1[nH]c(Cl)cc2nc(Cl)cn12
inactive: [19] 4.53 µM | [1] 2.52 µM | [2] 5.01 µM | [3] 8.79 µM | [4] 3.82 µM | [5] 2.3 µM | [6] 4.34 µM | [7] 7.85 µM | [8] 4.24 µM | [9] 5.43 µM | [10] 2.65 µM | [11] 2.54 µM | [12] 3.94 µM | [13] 16.1 µM | [14] 5.11 µM | [15] 3.85 µM | [16] 7.29 µM | [17] 6.68 µM | [18] 6.93 µM

CCOC(=O)NN(C(=O)OCC)C(=C(c1ccccc1)N1CCOCC1)N(NC(=O)OCC)C(=O)OCC
inactive: [19] > 100 µM | [1] > 100 µM | [2] > 100 µM | [3] > 100 µM | [4] > 100 µM | [5] > 100 µM | [6] > 100 µM | [20] > 100 µM | [7] > 100 µM | [8] > 100 µM | [9] > 100 µM | [10] > 100 µM | [11] > 100 µM | [12] > 100 µM | [13] > 100 µM | [14] > 100 µM | [15] > 100 µM | [16] > 100 µM | [17] > 100 µM | [18] > 100 µM

CN(C)c1cc[n+](-c2nc([N-]C(=O)C(F)(F)F)nc3c2ncn3C2CC(O)C(CO)O2)cc1 (stereo unspecified)
inactive: [1] > 100 µM | [2] > 100 µM | [3] > 100 µM | [4] > 100 µM | [5] > 100 µM | [6] > 100 µM | [20] > 100 µM | [7] > 100 µM | [8] > 100 µM | [9] > 100 µM | [10] > 100 µM | [11] > 100 µM | [12] > 100 µM | [13] > 100 µM | [14] > 100 µM | [15] > 100 µM | [16] > 100 µM | [17] > 100 µM | [18] > 100 µM

CC1OC2OC3C(OCC(O)C3O)OC(=O)[C@]34CCC(C)(C)CC3C3=CCC5[C@@]6(C)C[C@H](O)[C@H](OC7OC(CO)C(O)C(O)C7OC7OCC(OC(=O)CC(C)(O)CC(=O)OC1C(OC1OC(CO)C(O)C(O)C1O)C2O)C(O)C7O)[C@@](C)(CO)C6CC[C@@]5(C)[C@]3(C)CC4 (stereo partly specified)
inactive: [19] 6.41 µM | [1] 12.3 µM | [2] 8.09 µM | [3] 2.43 µM | [4] 7.11 µM | [5] 14.6 µM | [6] 7.53 µM | [7] 10.6 µM | [8] 3.41 µM | [9] 10.9 µM | [10] 7.87 µM | [11] 8.32 µM | [12] 7.91 µM | [13] 10.6 µM | [14] 10.8 µM | [15] 4.18 µM | [16] 12.2 µM | [17] 9.35 µM | [18] 9.73 µM

O=C(O)c1ccc2c(c1)CC1(C2)Cc2ccccc2C1=O (stereo unspecified)
inactive: [1] > 100 µM | [2] > 100 µM | [3] > 100 µM | [4] > 100 µM | [5] > 100 µM | [6] > 100 µM | [20] > 100 µM | [7] > 100 µM | [8] 51.8 µM | [9] > 100 µM | [10] > 100 µM | [11] > 100 µM | [12] > 100 µM | [13] > 100 µM | [14] > 100 µM | [15] > 100 µM | [16] > 100 µM | [17] > 100 µM | [18] > 100 µM
